Results on nine molecules are retold here after patent publication US8741947B2, “Biologically active macrolides, compositions, and uses thereof” (The United States of America, as represented by the …, priority 2000, dated 2014).

Series [1] has as its target Chromaffin Granule Membrane V-ATPase. Nature of the series: V-ATPase inhibitory assay, chromaffin granule membrane. Format: biochemical. The settings on record: Chromaffin Granule Membrane V-ATPase (bovine); read-out: V-ATPase (Ki, nM) CGM. As for the experimental part:
(§1) The V-ATPase inhibitory assays were performed on representative compound(s) of the present invention using non-mammalian or mammalian (e.g., bovine cromaffin granule) V-ATPases as described by Bowman et al., Proc. Natl. Acad. Sci. USA, 85, 7972-7976, 1988.

The target of series [2] is Neurospora crassa vacuolar membrane V-ATPase. Kind of series: V-ATPase inhibitory assay, Neurospora crassa vacuolar membrane. The conditions noted are these: read-out: V-ATPase (Ki, nM) NCVM. Format: biochemical. How it is done: as §1
The test system of series [3] is leukemia (MOLT-4) human tumor cell line. Nature of the series: 2-day in vitro cytotoxicity assay. The conditions noted are these: MOLT-4 leukemia cell line, 2-day in vitro assay. Format: cell-based. As for the experimental part: (§2) A 2.0 mg solution of chondropsin A in pyridine-d5 was kept at room temperature and ^1H NMR spectra were periodically acquired. […] After 7 days, the pyridine was removed under reduced pressure and the residue was purified by HPLC as described above to give 0.6 mg of a compound that by FABMS, HPLC retention time, ^1H NMR, and HSQC data, was identical to chondropsin D. Thus, chondropsin D can be prepared from chondropsin A via a base-catalyzed transesterification reaction in which the ester migrates from O-34 to O-67. The characterization of chondropsin D was facilitated by spectral analysis of the product of the corresponding base-catalyzed transesterification reaction of the dimethyl ester of chondropsin A (FIG. 1A, compound (3)), which produced the dimethyl ester of chondropsin D (FIG. 1A, compound (9)). Chondropsin D was evaluated for cytotoxic activity towards melanoma (LOX) and leukemia (MOLT-4) human tumor cell lines in a 2-day in vitro assay, the procedure for which is described in Bokesch et al., J. Nat. Prod., 62, 633-635 (1999).

Series [4] deals with melanoma (LOX) human tumor cell line. Nature of the series: 2-day in vitro cytotoxicity assay. The conditions noted are these: 2-day in vitro assay. Format: cell-based. As for the experimental part: as §2

Converted amounts (≈) assume the structure as drawn. Bounds are passed on as bounds.

The Ki is a dissociation constant, usually derived from enzyme kinetics or from competition with a known ligand. For `C/C=C/[C@H]1O[C@@](O)([C@@H](C)[C@H](O)[C@H](C)[C@H]2OC(=O)/C(OC)=C/C(C)=C/[C@@H](C)[C@@H](O)[C@@H](CC)[C@@H](O)[C@H](C)C/C(C)=C/C=C/[C@@H]2OC)C[C@@H](O[C@H]2C[C@@H](O)[C@H](OC(N)=O)[C@@H](C)O2)[C@@H]1C` [Concanamycin A, concanamycin A, reference compound], the values for the Ki in series [1] and in series [2] were 6 nM and 4 nM, respectively.
The matching figures for `COC(=O)C(C)(C)C(O)C(C)C(=O)C(C)(C)C=CC(=O)NC(C(O)C(C)C)C(O)C(C)C=C(C)C(O)C(C)CCC(O)C(C)C(=O)NC(C(C)O)C1OC(=O)C(C(O)C(=O)O)NC(=O)C=CC=CCCC=CC=CCC2CC(C)CC(CC(O)C(C)C(O)C(C)=CC(C)C(O)C(C)=CCC(O)C1C)O2` (centres unmarked) [Chondropsin B, chondropsin B]: 6000 nM and 200 nM.
The like results for `COC(=O)C(O)CC(=O)OC1CC=C(C)C(O)C(C)C=C(C)C(O)C(C)C(O)CC2CC(C)CC(CC=CC=CCCC=CC=CC(=O)NC(C(O)C(=O)OC)C(=O)OC(C(NC(=O)C(C)C(O)CCC(C)C(O)C(C)=CC(C)C(O)C(NC(=O)C=CC(C)(C)C(=O)C(C)C(O)C(C)(C)C(=O)OC)C(O)C(C)C)C(C)O)C1C)O2` (centres unmarked) [Chondropsin A, dimethyl ester, chondropsin A dimethyl ester] were, in that order, 500 nM and 50 nM.
On to `CO/C1=C\C(C)=C\[C@@H](C)[C@@H](O)[C@@H](C)C/C(C)=C/C=C/[C@H](OC)[C@@H]([C@@H](C)[C@@H](O)[C@H](C)[C@@]2(O)C[C@@H](O)[C@H](C)[C@@H](C(C)C)O2)OC1=O` [Bafilomycin A1, bafilomycin A1, reference compound], for which the Ki in series [1] came out at 6 nM; in series [2], 13 nM.
The like results for `COC(=O)C(C)(C)C(O)C(C)C(=O)C(C)(C)C=CC(=O)NC(C(O)C(C)C)C(O)C(C)C=C(C)C(O)C(C)CCC(O)C(C)C(=O)NC(C(C)O)C1OC(=O)C(C(O)C(=O)O)NC(=O)C=CC=CCCC=CC=CCC2CC(C)CC(CC(O)C(C)C(O)C(C)=CC(C)C(O)C(C)=CCC(OC(=O)CC(O)C(=O)O)C1C)O2` (centres unmarked) [Chondropsin A, chondropsin A] were, in that order, greater than 10000 nM and 800 nM.
On to `CC/C=C\C=C/C(=O)N/C=C/C[C@H]1C[C@@H](O)[C@@H](C)C/C=C/Cc2cccc(O)c2C(=O)O1` [Salicylihalamide A, salicylihalamide A, reference compound], for which the results for the Ki in series [1] and in series [2] were 6.5 nM and greater than 10000 nM, respectively.
For `COC(=O)C(C)(C)C(O)C(C)C(=O)C(C)(C)C=CC(=O)NC(C(O)C(C)C)C(O)C(C)C=C(C)C(O)C(C)CCC(O)C(C)C(=O)NC1C(C)OC(=O)C(C(O)C(=O)O)NC(=O)C=CC=CCCC=CC=CCC2CC(C)CC(CC(O)C(C)C(O)C(C)=CC(C)C(O)C(C)=CCC(OC(=O)CC(O)C(=O)O)C(C)C1O)O2` (centres unmarked) [Chondropsin D, chondropsin D], the Ki was greater than 10000 nM in series [1] and 140 nM in series [2]. Moreover, the “IC50 (cytotoxic activity)” value in series [3] is roughly 250 ng/mL (≈ 0.157 µM); in series [4] it was “approximately 10 ng/mL”.
Consider `COC(=O)C(C)(C)C(O)C(C)C(=O)C(C)(C)C=CC(=O)NC(CC(C)C)C(O)C(C)C=C(C)C(O)C(C)CCC(O)C(C)C(=O)NC(C(C)O)C1OC(=O)C(C(O)C(=O)O)NC(=O)C=CC=CCCC=CC=CCC2CC(C)CC(CC(O)C(C)C(O)C(C)=CC(C)C(O)C(C)=CCC(OC(=O)CC(O)C(=O)O)C1C)O2` (centres unmarked) [Chondropsin A, 73-deoxy, 73-deoxychondropsin A], for which the Ki is 3000 nM in series [1] and 100 nM in series [2].
The matching figures for `CC1=CCC(OC(=O)CC(O)C(=O)O)C(C)C(C(NC(=O)C(C)C(O)CCC(C)C(O)C(C)=CC(C)C(O)C(CC(C)C)NC(=O)C=CC(C)(C)C(=O)C(C)C(O)C(C)C)C(C)O)OC(=O)C(C(O)C(=O)O)NC(=O)C=CC=CCCC=CC=CCC2CC(C)CC(CC(O)C(C)C(O)C(C)=CC(C)C1O)O2` (centres unmarked) [Chondropsin C, chondropsin C]: 3000 nM and 80 nM.
